A short description of data set [1]: CCClick: 37% aq formaldehyde (5 mM, 5 eq) bridges the two exocyclic methylene carbons of a Fischer base dimer (two C-C bonds), then hemin (1 eq)/air oxidative dehydrogenation, one pot; Al2O3 column. The following applies: the molecule shown is the open-chain precursor, DMF, 1.0 mM, 37.0 °C, 12.0 h.
The nature of data set [2]: CCClick: formaldehyde (10 mM) bridges the two exocyclic methylene carbons of a Fischer base dimer (Knoevenagel dehydration cyclization, two C-C bonds), then hemin (1 mM)/air oxidative dehydrogenation to cyclic trimethine cyanine. As to conditions: the molecule shown is the open-chain precursor, DMF, 37.0 °C, 12.0 h.

As to `C=C1N(CCCCCCN2C(=C)C(C)(C)c3c2ccc2ccccc32)c2ccc3ccccc3c2C1(C)C` [FB1 -> CY-1], the ring closure, isolated yield in data set [1] (13-membered ring) is 62%. Moreover, the ring closure, conversion by HPLC in data set [2] (13-membered ring) worked out at 90%.
For `C=C1N(CCCCCCN2C(=C)C(C)(C)c3c2ccc2ccccc32)c2ccc(OCCCCCC[P+](c3ccccc3)(c3ccccc3)c3ccccc3)cc2C1(C)C.[I-]` [FB2 -> CY-2] the same measures were 57% and 90%.
For `C=C1N(CCCCCCN2C(=C)C(C)(C)c3c2ccc2ccccc32)c2ccccc2C1(C)C` [FB3 -> CY-3] the same measures were 35% and 48%.
For `C=C1N(CCCCCCN2C(=C)C(C)(C)c3cc(OC)ccc32)c2ccc(OC)cc2C1(C)C` [FB4 -> CY-4] the same measures were 40% and 85%.
In turn, `C=C1N(CCCCCCN2C(=C)C(C)(C)c3ccccc32)c2ccccc2C1(C)C` [FB5 -> CY-5] showed a ring closure, isolated yield in data set [1] (13-membered ring) of 26%. Moreover, the ring closure, conversion by HPLC in data set [2] (13-membered ring) is 31%.
In turn, `C=C1N(CCCCCCCCCCCCN2C(=C)C(C)(C)c3ccccc32)c2ccccc2C1(C)C` [FB6 -> CY-6] registered a ring closure, isolated yield in data set [1] (19-membered ring) of 29%. In data set [2] (19-membered ring), this compound yielded a ring closure, conversion by HPLC of 31%.
`C=C1N(CCCCCCCCCCCCCCCCCCN2C(=C)C(C)(C)c3ccccc32)c2ccccc2C1(C)C` [FB7 -> CY-7] registered a ring closure, isolated yield in data set [1] (25-membered ring) of 22%. This compound also showed a ring closure, conversion by HPLC in data set [2] (25-membered ring) of 24%.
For `C=C1N(CCOCCOCCN2C(=C)C(C)(C)c3c2ccc2ccccc32)c2ccc3ccccc3c2C1(C)C` [FB8 -> CY-8], the ring closure, isolated yield in data set [1] (15-membered ring) stood at 16%. In addition, the ring closure, conversion by HPLC in data set [2] (15-membered ring) turned out to be 34%.
Regarding `C=C1N(CCCCCCCCCCCCN2C(=C)C(C)(C)c3c2ccc2ccccc32)c2ccc3ccccc3c2C1(C)C` [FB9 -> CY-9], the ring closure, isolated yield in data set [1] (19-membered ring) amounted to 44%. The same compound had a ring closure, conversion by HPLC in data set [2] (19-membered ring) of 77%.

Values taken from article PMC12666538.
